# From paper PMC6435658, “Investigation into the Molecular Mechanisms underlying the Anti-proliferative and Anti-tumorigenesis activities of Diosmetin against HCT-116 Human Colorectal Cancer” (Scientific Reports, 2019)
# What was measured:
# [1] = test system: HCT-116 cells; assay: Human apoptosis protein array (proteome profiler); assay type: cell-based; conditions: vs control
# Protocol: Apoptosis protein expression profiling was performed using human apoptosis array (R&D Systems, Minneapolis, MN, USA) according to the manufacturer’s protocol. In brief, 2 × 10^6 HCT-116 cells were seeded and treated with Dis in 75 cm^2 flask and incubated for 48 h. Cells were harvested and lysed via lysis buffer reagent and was quantified using Pierce BCA protein assay kit (Thermo Scientific™, Pittsburgh, PA, USA). The membrane provided was blocked in blocking solution reagent and treated overnight with cell lysates protein. The membrane was washed and subsequently incubated with detection antibody cocktail and streptavidin horseradish peroxidase-conjugated. Chemiluminescent reagents were added to the membrane and then exposed to X-ray film to detect the protein expression levels in treated cells as compared to untreated cells. Images were quantified via ImageJ software (NIH, USA). The list of investigated proteins is provided as supplementary data (Table S2).
# [2] = test system: MCF-10; set-up: method as in PMID 19424633, PMID 27176768, PMID 26847170, PMID 20183323; conditions: MCF-10 non-cancerous cells, 24 h; ref [10],[13],[15],[47]; cited from earlier work
# [3] = test system: caspase 3/7; assay: Caspase-Glo 3/7 bioluminescent assay; assay type: cell-based, human; conditions: HCT-116, 24 h, 48 h, 72 h, time dependent
# Protocol: (§1) To assess the effect of Dis on caspase cascades in treated cells, activities of caspase-Glo 3/7, caspase-Glo 8 and caspase-Glo 9 assays (Promega, Madison, WI, USA) were performed. Briefly, HCT-116 cells with the density of 10^4 cells/well were seeded in 96 well-plates. Cells were treated with Dis for 24 h, 48 h and 72 h. This assay was performed in triplicates for each time point. A total of 6 wells were preserved for samples without cells but with media and reagents as the blank samples, and for the untreated cells as negative control. At the end of incubation time, 100 µl caspase-glo mixture were added to each well and incubated for 1 h in the dark according to the manufacturer’s instructions. Optical density was measured via multimode microplate reader (Tecan Infinite, Männedorf, Switzerland).
# [4] = test system: caspase 9; assay: Caspase-Glo 9 bioluminescent assay; assay type: cell-based, human; conditions: HCT-116, 24 h, 48 h, 72 h, time dependent
# Protocol: as §1
# [5] = test system: HCT-116 cells; assay: Cell cycle analysis by flow cytometry; assay type: cell-based, human; conditions: HCT-116, 24 h, 48 h, 72 h
# Protocol: Flow cytometry analysis was performed to determine any disruption during the cell cycle of HCT-116 cells in the presence of Dis. HCT-116at density of 2 × 10^6 cells were seeded and treated for 24 h, 48 h and 72 h in a 75 cm^2 flask. Negative control was treated with 0.02% DMSO. After fixation of the cells with 70% ethanol, cells were preserved in −20 °C overnight followed by washing and staining with 500 µl of PI/Rnase dye (BD Biosciences, San Jose, CA, USA) and incubated for 30 min. DNA content analysis was performed using BD FACSCanto II flow cytometer instrument and BD FACS Diva software (BD FACSCanto™II, San Jose, CA, USA). A total of 15,000 events per sample were recorded for analysis. ModFit LT version 3.0 software was used for analyzing the data.
# [6] = test system: HCT-116 cells; assay: Annexin-V-FITC apoptosis assay; assay type: cell-based, human
# Protocol: Inductions of early and late stages of apoptosis by Dis were investigated using Annexin-V-FITC assay according to the manufacturer’s instructions (BD Biosciences, San Jose, CA, USA). Briefly, 10^6 HCT-116 cells were seeded in 25 cm^2 flask followed by treatment with Dis for 24 h, 48 h and 72 h. Treated cells were harvested and washed twice with cold PBS and suspended in binding buffer followed by transferred of 10^5 cells to the 6 ml polystyrene round-bottom FACS tubes. Cells were incubated with 5 µl of PI and 5 µl of Annexin-V-FITC and introduced to the FACSCanto™II instrument (BD, San Jose, CA, USA).
# [7] = test system: NF-κB; assay: Translocation of NF-κB induced by TNF-α; assay type: cell-based, human; conditions: HCT-116 stimulated with TNF-α, vs untreated group
# Protocol: Confocal microscope was used to detect the suppressive effect of Dis on translocation of NF-κB from cytoplasm to nucleus induced by TNF-α (Santa Cruz, CA, USA) using cellomics nucleus factor-κB (NF-κB) activation kit (Thermo Scientific™, Pittsburgh, PA, USA). HCT-116 cells were seeded and treated with Dis at different time points in 24 well-plate covered with cover slide. An amount of 150 ng/ml of TNF-α was used as a stimulator for 24 h. Cells were then fixed and stained according to the manufacturer’s instructions. Translocation of NF-κB was investigated via confocal Leica TCS SP5 II microscope (Leica Microsystems, Mannheim, Germany) and intensity of NF-κB was measured by using LAS X software.
# [8] = test system: SK-Hep-1; set-up: method as in PMID 19424633, PMID 27176768, PMID 26847170, PMID 20183323; conditions: SK-Hep-1, 24 h; ref [10],[13],[15],[47]; cited from earlier work
# [9] = test system: HCC; set-up: method as in PMID 19424633, PMID 27176768, PMID 26847170, PMID 20183323; conditions: 24 h treatment, ref [10],[13],[15],[47]; cited from earlier work
compound,measurement,setting,value
"COc1ccc(-c2cc(=O)c3c(O)cc(O)cc3o2)cc1O [Dis, Diosmetin]","Protein expression of caspase 3 cleavage, fold change","[1]; HCT-116, 3.58 µg/ml Dis, 48 h",2.61
same,"Protein expression of pro-caspase 3, fold change","[1]; HCT-116, 3.58 µg/ml Dis, 48 h",0.75
same,"Hsp27 expression, gene and protein levels","[1]; HCT-116, 48 h",significantly decreased
same,expression of FADD,"[1]; HCT-116, 48 h",significantly increased
same,protein expression level of Bax,"[1]; HCT-116, 48 h",accelerated
same,protein expression level of Cytochrome C,"[1]; HCT-116, 48 h",accelerated
same,protein expression of Survivin,"[1]; HCT-116, 48 h",significantly decreased
same,IC50,[2],30 µg/mL
same,cleavage of caspase 3/7,[3],significantly increased
same,cleavage of caspase 9,[4],significantly increased
same,cell cycle arrest,[5],arrested in G2/M phase
same,Late apoptosis,"[6]; HCT-116, 24 h",18 ± 3.6%
same,Late apoptosis,"[6]; HCT-116, 48 h",26.3 ± 3.6%
same,Late apoptosis,"[6]; HCT-116, 72 h",53.15 ± 4.35%
same,population of cells in early apoptosis,"[6]; HCT-116, 72 h of treatment",7.7 ± 0%
same,translocation of NF-ƙB,[7],significantly reduced
same,IC50,[8],100 µg/mL
same,IC50,[9],50 µg/mL
